Data as given in the supplement of paper PMC6723410.

Tested on: GUMC-403
Experiment: viability at highest tested concentration (max response) relative to DMSO (% of DMSO control); higher = less cytotoxic
Details: library / dose series: MIPE library, 11-point 1:3 dilution, 48 h
Outline: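 Patient-derived GUMC-403 papilloma cells grown by conditional reprogramming were plated at 700/well in 5 μL F + Y medium in 1536-well plates and incubated overnight at 37 °C. They then received 23 nL of MIPE 4.0 compounds by pin tool (11-point 1:3 series) for 48 h. CellTiter-Glo luminescence was read on a ViewLux and normalised with DMSO wells as 100% and empty wells as 0%. The value is viability at the highest tested concentration relative to DMSO control.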

Row | Structure (SMILES) | viability (top concentration 46.1 µM) | viability (top concentration 92.2 µM)
1 | CCOC(=O)C(C)OC1=CC=CC2=C1\C=C/N(CC(=O)NC3=CC=C4OCCOC4=C3)C2=O (configuration not stated) | 105 | 
2 | CC(C)NCC(O)c1ccc(O)c(O)c1 (configuration not stated) | 127 | 
3 | N[C@@H](C(=O)N[C@H]1[C@H]2SC\C(=C(/N2C1=O)C(O)=O)Cl)C3=CC=CC=C3 | 122 | 
4 | C[S+](=O)([O-])Oc1ccc2c(NC(N)=O)c(C(=O)c3ccc(Cl)cc3Cl)oc2c1 | 108 | 
5 | Nc1ncnc2c1ncn2[C@@H]1O[C@H](CO)[C@@H](O)[C@H]1O | 132 | 
6 | O=C(c1ccc(C(=O)N2CCC(N3CCCC3)CC2)c(Nc2ccccc2)c1)N1CCC(N2CCCC2)CC1 | 109 | 
7 | F\C1=C\NC(=O)NC1=O | 109 | 
8 | CCOc1cc(CC(=O)N[C@@H](CC(C)C)c2ccccc2N2CCCCC2)ccc1C(=O)O | 143 | 
9 | Cc1c(NC(=O)OC[C@@H]2COCCN2)cn2ncnc(Nc3ccc4c(cnn4Cc4cccc(F)c4)c3)c12 | 75.8 | 
10 | N#Cc1ccc(NC(=O)Nc2ccccc2Br)c2nn[nH]c12 | 129 | 
11 | CN1C2CCC1CC(OC(=O)C(CO)c1ccccc1)C2 (configuration not stated) | 109 | 
12 | Cc1ccccc1N1C(=O)c2cc([S+](N)(=O)[O-])c(Cl)cc2NC1C (configuration not stated) | 105 | 
13 | COc1cc(OC2CCN(C)CC2)ccc1Nc1ncc2c(n1)n(C1CCCC1)c(=O)n2C | 60.4 | 
14 | CC(=O)NC(CS)C(=O)O (configuration not stated) | 91.1 | 
15 | CCc1cncnc1N1CCN(Cc2nc3cc(C(F)(F)F)ccc3[nH]2)CC1 | 84.5 | 
16 | CCN(CC)Cc1ccc2cc(COC(=O)Nc3ccc(C(=O)NO)cc3)ccc2c1 | 78.6 | 
17 | CNC[C@H](O)c1cccc(O)c1 | 139 | 
18 | Cc1nc(-c2ccc(OCC(C)C)c(C#N)c2)sc1C(=O)O | 129 | 
19 | CCN[C@H]1C[C@H](C)[S+](=O)([O-])c2sc([S+](N)(=O)[O-])cc21 | 103 | 
20 | COc1cc(C)c(/C=C/C(C)=C/C=C/C(C)=C/C(=O)O)c(C)c1C | 101 | 
21 | CO[C@H]1C[C@@H]2CC[C@@H](C)[C@@](O)(O2)C(=O)C(=O)N2CCCC[C@H]2C(=O)O[C@H]([C@H](C)C[C@@H]2CC[C@@H](OC(=O)C(C)(CO)CO)[C@H](OC)C2)CC(=O)[C@H](C)/C=C(\C)[C@@H](O)[C@@H](OC)C(=O)[C@H](C)C[C@H](C)/C=C/C=C/C=C/1C | 110 | 

Row | Structure (SMILES) | viability (top concentration 46.1 µM) | viability (top concentration 92.2 µM)
22 | COc1cc2c(cc1OC)CC(=O)N(CCCN(C)C[C@H]1Cc3cc(OC)c(OC)cc31)CC2.Cl | 129 | 
23 | C=C1/C(=C\C=C2/CCC[C@]3(C)[C@@H]([C@H](C)/C=C/[C@H](C)C(C)C)CC[C@@H]23)C[C@@H](O)C[C@@H]1O | 150 | 
24 | COc1ccc([S+](=O)([O-])Nc2cccnc2Nc2ccc(O)cc2)cc1 | 99.9 | 
25 | OC(COC1=C2C(=O)\C=C(/OC2=CC=C1)C([O-])=O)COC3=C4C(=O)\C=C(/OC4=CC=C3)C([O-])=O | 113 | 
26 | Nc1cccc2c1CN([C@H]1CCC(=O)NC1=O)C2=O |  | 106
27 | C[C@]12CCC(=O)C=C1CC[C@@H]1[C@@H]2[C@@H](O)C[C@@]2(C)[C@H]1CC[C@]2(O)C(=O)CO | 135 | 
28 | O=C(O)CCNc1cc(N2CCc3ccccc3CC2)nc(-c2ccccn2)n1 | 125 | 
29 | CN(C)[C@H]\1[C@@H]2[C@@H](O)[C@H]3\C(=C(O)/[C@]2(O)C(=O)\C(=C1O)C(N)=O)C(=O)C4=C(C=CC=C4O)[C@@]3(C)O | 114 | 
30 | C[C@H]1O[C@H](O[C@H]2[C@H](O)[C@@H](O)[C@H](O[C@@H]2CO)O[C@H]3[C@H](O)[C@@H](O)C(O)O[C@@H]3CO)[C@H](O)[C@@H](O)[C@@H]1N[C@H]4\C=C(CO)/[C@@H](O)[C@H](O)[C@H]4O (some centres not stated) | 135 | 
31 | [O-]C(=O)C1=C(C(=C(Cl)C(=C1Cl)Cl)Cl)C/2=C/3\C=C(I)/C(=O)/C(=C3OC4=C2C=C(I)C(=C4I)[O-])I | 82 | 
32 | Cc1ccc(C(=O)Nc2cccc(C(F)(F)F)c2)cc1-c1ccc2nc(NCCN3CCOCC3)ncc2c1 | 55.5 | 
33 | Cc1c(OCC(F)(F)F)ccnc1C[S+]([O-])c1nc2ccccc2[nH]1 (configuration not stated) | 82.7 | 
34 | Oc1ccc(C2CNCCc3c2cc(O)c(O)c3Cl)cc1 (configuration not stated) | 120 | 
35 | O=C(O)[C@@H](c1ccc(OCc2ccc3ccccc3n2)cc1)C1CCCC1 | 108 | 
36 | Cc1cnc(Nc2ccc(OCCN3CCCC3)cc2)nc1Nc1cccc([S+](=O)([O-])NC(C)(C)C)c1 | 141 | 
37 | CN(C[C@@H]1COCCO1)[S+]([O-])(=O)NC2=CC3=C(C=C2)\C=C/C4=C(C=C(C=N4)C5=C[N](C)N=C5)C3=O | 114 | 
38 | CC(=O)Nc1sc2c(c1-c1nc3ccccc3s1)CNC2 | 86.3 | 
39 | COC(=O)Nc1nc2ccc([S+]([O-])c3ccccc3)cc2[nH]1 (configuration not stated) | 95.4 | 
40 | O=C(O)c1cc(/N=N/c2ccc([S+](=O)([O-])Nc3ccccn3)cc2)ccc1O | 121 | 
41 | COC(=O)Nc1nc2cc(C(=O)c3ccccc3)ccc2[nH]1 | 88.2 | 
42 | CCOC(=O)C/1=C(C)/NC(=S)NC1C2=CC=CC(=C2)O (configuration not stated) | 118 | 

Row | Structure (SMILES) | viability (top concentration 46.1 µM) | viability (top concentration 92.2 µM)
43 | COc1ccc(-c2nc3cc(C4=NNC(=O)CC4C)ccc3[nH]2)cc1 (configuration not stated) | 119 | 
44 | CC(C)(C)OC(=O)N[C@H]1CCCCC/C=C\[C@@H]2C[C@@]2(C(=O)N[S+](=O)([O-])C2CC2)NC(=O)[C@@H]2C[C@@H](OC(=O)N3Cc4cccc(F)c4C3)CN2C1=O | 138 | 
45 | O=C(CCCCCCC(=O)Nc1ccccc1)NO | 99 | 
46 | CCN(C)C(=O)Oc1cccc([C@H](C)N(C)C)c1 | 125 | 
47 | OC[C@H]1O[C@H](C[C@@H]1O)N2/C=C(C(=O)NC2=O)/C(F)(F)F | 103 | 
48 | Oc1ccc(OCc2ccccc2)cc1 | 110 | 
49 | Oc1ccc(C2CCN(c3ccnc4ccccc34)CC2)cc1O | 92.8 | 
50 | CNC(=O)c1c(-c2ccc(F)cc2)oc2cc(N(CCO)[S+](C)(=O)[O-])c(C3CC3)cc12 | 69.1 | 
51 | CC/C(=C(/CC)c1ccc(O)cc1)c1ccc(O)cc1 | 84.8 | 
52 | CCC1=C[C@@H]2CN(C1)Cc1c([nH]c3ccccc13)[C@@](C(=O)OC)(c1cc3c(cc1OC)N(C)[C@H]1[C@@](O)(C(=O)OC)[C@H](OC(C)=O)[C@]4(CC)C=CCN5CC[C@]31[C@@H]54)C2 | 89.9 | 
53 | COC1=C2OC(=O)\C=C/C2=CC3=C1OC=C3 | 102 | 
54 | O=C1CCc2cc(OCCCCc3nnnn3C3CCCCC3)ccc2N1 | 107 | 
55 | C[C@@H]1CC[C@@]2(CC[C@]3(C)\C(=C/C[C@@H]4[C@@]5(C)CC[C@H](O)C(C)(C)[C@@H]5CC[C@@]34C)[C@@H]2[C@H]1C)C(O)=O |  | 95.2
56 | C[C@@H]1C[C@@H]([C@H](O)CC2CC(=O)NC(=O)C2)C(=O)[C@@H](C)C1 | 89.5 | 
57 | O=C(Nc1cc(Cl)cc2c1[nH]c1cnccc12)c1cccnc1 | 56.8 | 
58 | Cc1cn([C@@H]2O[C@H](CO)[C@@H](O)[C@@H]2F)c(=O)[nH]c1=O | 128 | 
59 | CN1C(=O)CCS(=O)(=O)C1c1ccc(Cl)cc1 (configuration not stated) | 104 | 
60 | CCCCC(F)(F)[C@@]1(O)CC[C@H]2[C@@H](CC(=O)[C@@H]2CCCCCCC(=O)O)O1 | 110 | 
61 | Clc1cc(Cl)cc(CNc2ncncc2-c2ccc3c(c2)OCO3)c1 | 99.6 | 
62 | CCOC(=O)c1ccc(OC(=O)CCCCCNC(=N)N)cc1 | 138 | 
